Values quoted from earlier work as cited in patent publication US8680084B2, “Oral contraceptives to prevent pregnancy and diminish premenstrual symptomatology” (Teva Women's Health, Inc., priority 2001, dated 2014).

How the values were obtained:
[1] = for amount roughly equivalent to 1 mg of levonorgestrel: progestin potency relative to levonorgestrel; for amount roughly equivalent to 30 μg of ethinyl estradiol: estrogen potency relative to ethinyl estradiol
PMDD = details: daily dose of either 20 mg or 60 mg; randomized, placebo-controlled trials

Row | SMILES | amount roughly equivalent to 1 mg of levonorgestrel [1] | other results
1 | C#C[C@]1(O)CC[C@H]2[C@@H]3CCC4=CC(=O)CC[C@@H]4[C@H]3C(=C)C[C@@]21CC [3-ketodesogestrel] | ~1 mg | –
2 | C[C@]12CC[C@@H]3c4ccc(O)cc4CC[C@H]3[C@@H]1CC[C@@H]2O [17β-estradiol] | – | amount roughly equivalent to 30 μg of ethinyl estradiol [1]: ~2 mg
3 | CNCCC(Oc1ccc(C(F)(F)F)cc1)c1ccccc1 (stereo not shown) [Fluoxetine, fluoxetine] | – | reducing symptoms of PMDD versus placebo (PMDD): superior to placebo
4 | C#C[C@]1(O)CC[C@H]2[C@@H]3CCC4=CCCC[C@@H]4[C@H]3C(=C)C[C@@]21CC [desogestrel] | ~1 mg | –
5 | C#C[C@]1(O)C=C[C@H]2[C@@H]3CCC4=CC(=O)CC[C@@H]4[C@H]3CC[C@@]21CC [gestodene] | about 0.7 mg | –
6 | C#C[C@]1(O)CC[C@H]2[C@@H]3CCc4cc(OC)ccc4[C@H]3CC[C@@]21C [mestranol] | – | amount roughly equivalent to 30 μg of ethinyl estradiol [1]: ~0.06 mg
7 | C#C[C@]1(OC(C)=O)CC[C@H]2[C@@H]3CCC4=CC(=O)CC[C@@H]4[C@H]3CC[C@@]21C [norethindrone acetate] | about 3.5 mg | –
